Here are results for two substances from patent US20120058972A1, “NOVEL USE” (priority 2009, published 2012).

Experiment [1] relates to Dextran Sulphate Sodium Induced Colitis Mouse Model. The experiment is described as follows: Dextran sulphate sodium induced colitis mouse model, IL-6 and MIP-2 in colon tissue homogenates (ELISA). The class given is in vivo, C57BL/6 mice. To be noted: 3.5% DSS in drinking water 5 days. From the text:
Two groups (n=24 each) of adult C57BL/6 mice (Jackson Laboratories, Bar Harbour, Me., USA), conventionally raised (CR) and bacteria-depleted (BD) mice, were used to induce colitis. All animals were housed within a 12-h light/dark cycle and had access to mouse chow and water ad libitum.
At 6 weeks of age, conventionally colonised mice were housed under conventional conditions with untreated water (CR group) whilst mice in the BD group were fed an antibiotic cocktail in their drinking water for 2 weeks. Kanamycin (8 mg/ml), Gentamicin (0.7 mg/ml), Colistin (34,000 U/ml), Metronidazole (4.3 mg/ml) and Vanacomycin (0.9 mg/ml) comprised the antibiotic cocktail. Concentrations of antibiotics in the water were calculated based on the average water consumed by age group.
At 8 weeks of age, intestinal colitis was induced by feeding 3.5% DSS (Dextran Sulphate Sodium) (MP Biomedicals, Aurora, Ohio, USA) in drinking water for 5 days in all mice of both groups (CR and BD). At 10 weeks of age, half the mice of each group started receiving Bimuno (5 g/L) for 7 days. At the end of week 10, the animals were euthanized and their colons were harvested for analysis.
Murine IL-6 and MIP-2 cytokines were analysed by ELISA (Quantikine, R&D Systems, Minn., USA) on colon tissue homogenates according to manufacturer's instructions. Briefly, the proximal colons for each group were collected and homogenised with PBS homogenising buffer containing 1% Triton X-100 supplemented with a cocktail of protease inhibitors. The homogenised solutions were centrifuged at 12,000 rpm for 10 min, and the supernatants were separated into aliquots and stored at −70° C.

The test system of experiment [2] is NCM-460 cells. The experiment is described as follows: Effect of B-GOS on IL-8 and MIP-3α secretion in NCM-460 cells (ELISA). In kind it is cell-based, human. To be noted: TNF-α 10 ng/mL, vs untreated, p<0.001. The protocol: (§1) Intestinal epithelial cells were grown to confluence in 24-well plates from an initial concentration of 5×10^5 cells/mL. When the cells reached 70% confluence, they were treated in quadruplicate as follows: (i) negative control, (ii) TNF-α (10 ng/mL) positive control, (iii) B-GOS (5 g/L) and (iv) TNF-α (10 ng/mL) with B-GOS (5 g/L). A concentration of 5 g/L of oligosaccharides was used since this is the physiological concentration of oligosaccharides found in human milk. After 16 hours, supernatants were collected and stored at −20° C. for IL-8 and MIP-3α secretion to be determined later by ELISA. In following experiments, TNF-α was replaced by IL1β or flagellin.
Quantitation of IL-8. The IL-8 concentration was measured by ELISA as described previously (Claud E C, Savidge T, Walker W A 2003 Modulation of human intestinal epithelial cell IL-8 secretion by human milk factors. Pediatr Res 53:419-425). […] The reaction was stopped with 100 μL 2N H2SO4 and the absorbance was read at 490 nm. The concentration of IL-8 in the samples was calculated from the IL-8 standard curve.
Quantitation of MIP-3α. The amount of MIP-3α secretion was measured by ELISA similar to IL-8, except that the plate was coated overnight with 100 μL 2.0 μg/mL mouse anti-human MIP-3α monoclonal antibody. […] The concentration of MIP-3α in the samples was calculated from the MIP-3α standard curve. […]

The subject of experiment [3] is NF-κB p65 protein. Kind of experiment: Effect of B-GOS on NF-κB translocation (immunofluorescence). In kind it is cell-based, human. As to conditions: NCM-460 cells, TNF-α 10 ng/mL alone, 30 minutes. The protocol:
Effect of B-GOS on NF-KB translocation. NCM-460 cells were grown to 70% confluency on cover slips and treated in duplicate for 10 or 30 minutes as follows: (i) negative control, (ii) TNF-α (10 ng/mL) positive control, and (iii) TNF-α (10 ng/mL) with B-GOS (5 g/L). The medium was removed and the cells were fixed in 4% paraformaldehyde. After permeabilization with methanol and blocking with 10% goat serum in 0.25% BSA in TBS, the cells were probed with rabbit anti-human NF-κB p65 polyclonal antibody. After washing, the cells were incubated with CyTM 3-conjugated goat anti-rabbit antibody. The cover slips were then washed and mounted on a glass slide to be visualized under the microscope (Nikon Eclipse TE2000-S).

The subject of experiment [4] is T84 cells. The experiment is described as follows: Effect of B-GOS on TNF-α induced IL-8 secretion in T84 cells (ELISA). The class given is cell-based, human. To be noted: TNF-α 10 ng/mL, vs untreated, p<0.001. The protocol: as §1
Quantitation of IL-8. The IL-8 concentration was measured by ELISA as described previously (Claud E C, Savidge T, Walker W A 2003 Modulation of human intestinal epithelial cell IL-8 secretion by human milk factors. Pediatr Res 53:419-425). […] The reaction was stopped with 100 μL 2N H2SO4 and the absorbance was read at 490 nm. The concentration of IL-8 in the samples was calculated from the IL-8 standard curve. […]
Statistical analysis. […] Gene expression data obtained by qRT-PCR was expressed as the mean with SE. […]
Background: An ELISA detects its analyte on a solid surface through an enzyme-linked reagent.

The test system of experiment [5] is NCM-460 cells. The experiment is described as follows: Effect of B-GOS on induction of cytokine transcription (qRT-PCR of IL-8, MIP-3α, MCP-1 mRNA). To be noted: TNF-α 10 ng/mL, 18 hours, p<0.001. The class given is cell-based, human. The protocol: Effect of B-GOS on induction of cytokine transcription. NCM-460 cells were grown to confluence in 6-well plates from an initial concentration of 5×10^5 cells/mL. When the cells reached 70% confluence, they were treated as follows in quadruplicate: (i) negative control, (ii) TNF-α or IL1β or flagellin (10 ng/mL) positive control, and (iii) TNF-α or IL1β or flagellin (10 ng/mL) with B-GOS (5 g/L). After 18 hours, total cellular RNA was isolated by Trizol-chloroform extraction. Using the SuperScript III Platinum SYBR Green One-Step qRT-PCR kit, the mRNA expression of IL-8, MIP-3α and MCP-1 was measured on a MJ Opticon 2 and standardized to mRNA expression of GAPDH.
Statistical analysis. Induction of cytokines was standardized to the positive control with error bars representing standard error (SE). Comparisons between groups were performed using a two-tailed Student's t test. Gene expression data obtained by qRT-PCR was expressed as the mean with SE. Comparisons between groups were performed using a Student's two-tailed t test after logarithmic transformation. A p value <0.05 was considered statistically significant and indicated by an asterisk (*), a p value <0.01 was indicated by two asterisks (**) and a p value <0.001 was indicated by three asterisks (***).

Regarding Dextran Sulphate Sodium [DSS], the “induction of IL-6 secretion by DSS” value in experiment [1] (BD mice, p<0.0001) worked out at 6.2 fold; in experiment [1] (conventional mice, p<0.0001), 2.2 fold. Also, the “induction of MIP-2 secretion by DSS” value is 27.2 fold in experiment [1] (BD mice, p=0.0005) and 8.3 fold in experiment [1] (conventional mice, p<0.0001).
For the substance TNF-α, in experiment [2], the “increase of IL-8 secretion upon TNF-α stimulation” value was determined as 58.8 fold and the “increase of MIP-3α secretion upon TNF-α stimulation” value is 25.0 fold. In addition, the “nuclear translocation of NF-κB p65 upon TNF-α stimulation” value in experiment [3] was “clearly translocated into the nuclei”. The “increase of IL-8 secretion upon TNF-α stimulation” value in experiment [4] was 4.9 fold. Besides, in experiment [5], the “increase of IL-8 mRNA expression upon TNF-α stimulation” value turned out to be 12.2 fold and the “increase of MIP-3α mRNA expression upon TNF-α stimulation” value is given as 99.4 fold.
